Experimental data: the NIST ThermoML archive (doi:10.1021/je0601457)
Numbers after ± are expanded uncertainties.

Experiment: xn = mol fraction of the nth substance listed

c1cnccn1 [pyrazine] + O=C=O
Fluid (supercritical or subcritical phases), Linear displacement technique
Details	mass density [kg/m3]
294.25 K, 5340 kPa, x1 = 0.308	1054 ± 42
294.25 K, 9480 kPa, x1 = 0.308	1070 ± 43
294.25 K, 12170 kPa, x1 = 0.308	1078 ± 43
295.55 K, 6450 kPa, x1 = 0.019	854 ± 36
295.55 K, 7000 kPa, x1 = 0.019	877 ± 36
295.55 K, 9070 kPa, x1 = 0.019	915 ± 37
295.65 K, 5520 kPa, x1 = 0.146	887 ± 36
295.65 K, 5970 kPa, x1 = 0.074	926 ± 39
295.65 K, 6100 kPa, x1 = 0.074	929 ± 37
295.65 K, 6310 kPa, x1 = 0.074	941 ± 38
295.65 K, 6380 kPa, x1 = 0.116	815 ± 33
295.65 K, 6520 kPa, x1 = 0.146	898 ± 36
295.65 K, 8210 kPa, x1 = 0.116	833 ± 33
295.65 K, 12790 kPa, x1 = 0.146	926 ± 37
296.25 K, 6140 kPa, x1 = 0.09	873 ± 35
296.25 K, 9830 kPa, x1 = 0.09	923 ± 37
298.25 K, 6590 kPa, x1 = 0.015	863 ± 36
298.25 K, 7520 kPa, x1 = 0.015	892 ± 36
298.25 K, 8790 kPa, x1 = 0.015	918 ± 37
299.45 K, 7760 kPa, x1 = 0.224	921 ± 37
300.75 K, 6520 kPa, x1 = 0.177	894 ± 36
300.75 K, 7070 kPa, x1 = 0.177	898 ± 40
300.75 K, 10790 kPa, x1 = 0.177	917 ± 37
303.65 K, 7070 kPa, x1 = 0.074	903 ± 36
303.65 K, 8720 kPa, x1 = 0.074	924 ± 37
303.75 K, 7480 kPa, x1 = 0.015	828 ± 33
303.75 K, 9410 kPa, x1 = 0.015	898 ± 39
303.75 K, 10240 kPa, x1 = 0.015	917 ± 37
303.75 K, 12450 kPa, x1 = 0.015	956 ± 47
304.15 K, 7690 kPa, x1 = 0.019	791 ± 35
304.15 K, 8380 kPa, x1 = 0.019	826 ± 35
304.15 K, 9210 kPa, x1 = 0.019	849 ± 37
304.15 K, 10520 kPa, x1 = 0.019	876 ± 35
304.15 K, 11900 kPa, x1 = 0.019	898 ± 37
304.25 K, 7340 kPa, x1 = 0.116	798 ± 32
304.25 K, 7550 kPa, x1 = 0.116	801 ± 32
304.25 K, 9550 kPa, x1 = 0.116	816 ± 34
304.95 K, 7280 kPa, x1 = 0.308	1036 ± 41
304.95 K, 9690 kPa, x1 = 0.308	1041 ± 42
304.95 K, 13620 kPa, x1 = 0.308	1052 ± 42
305.75 K, 6930 kPa, x1 = 0.146	839 ± 51
305.75 K, 7280 kPa, x1 = 0.146	863 ± 35
305.75 K, 11690 kPa, x1 = 0.146	886 ± 35
305.85 K, 7340 kPa, x1 = 0.09	858 ± 34
305.85 K, 10170 kPa, x1 = 0.09	884 ± 36
306.35 K, 6520 kPa, x1 = 0.397	1049 ± 42
306.35 K, 9690 kPa, x1 = 0.397	1061 ± 42
306.35 K, 13690 kPa, x1 = 0.397	1070 ± 43
308.25 K, 7550 kPa, x1 = 0.074	882 ± 35
308.25 K, 9480 kPa, x1 = 0.074	906 ± 36
308.65 K, 6030 kPa, x1 = 0.495	999 ± 40
308.65 K, 7000 kPa, x1 = 0.495	1001 ± 40
308.65 K, 9240 kPa, x1 = 0.495	1008 ± 40
309.45 K, 7070 kPa, x1 = 0.177	872 ± 35
309.45 K, 7620 kPa, x1 = 0.177	874 ± 35
309.45 K, 9760 kPa, x1 = 0.177	884 ± 36
312.05 K, 9480 kPa, x1 = 0.224	899 ± 36
312.05 K, 9760 kPa, x1 = 0.015	778 ± 35
312.05 K, 9930 kPa, x1 = 0.015	787 ± 35
312.05 K, 10410 kPa, x1 = 0.015	812 ± 34
312.05 K, 11100 kPa, x1 = 0.015	835 ± 35
312.05 K, 16790 kPa, x1 = 0.224	919 ± 37
312.75 K, 7760 kPa, x1 = 0.308	1023 ± 41
312.75 K, 11690 kPa, x1 = 0.308	1033 ± 41
312.75 K, 14830 kPa, x1 = 0.308	1043 ± 42
313.55 K, 8450 kPa, x1 = 0.116	773 ± 31
313.55 K, 8790 kPa, x1 = 0.116	778 ± 31
313.55 K, 10860 kPa, x1 = 0.116	791 ± 33
313.65 K, 9030 kPa, x1 = 0.019	687 ± 46
313.65 K, 9140 kPa, x1 = 0.019	712 ± 46
313.65 K, 9830 kPa, x1 = 0.019	761 ± 35
313.65 K, 10450 kPa, x1 = 0.019	792 ± 34
313.65 K, 10860 kPa, x1 = 0.019	809 ± 33
313.65 K, 12520 kPa, x1 = 0.019	850 ± 35
314.85 K, 8240 kPa, x1 = 0.146	833 ± 33
314.85 K, 8860 kPa, x1 = 0.146	839 ± 34
314.85 K, 14240 kPa, x1 = 0.146	869 ± 35
314.95 K, 7830 kPa, x1 = 0.397	1040 ± 42
314.95 K, 11280 kPa, x1 = 0.397	1048 ± 42
314.95 K, 15140 kPa, x1 = 0.397	1060 ± 42
315.85 K, 8660 kPa, x1 = 0.09	813 ± 33
318.95 K, 9210 kPa, x1 = 0.015	512 ± 25
318.95 K, 9280 kPa, x1 = 0.015	527 ± 25
318.95 K, 9480 kPa, x1 = 0.015	571 ± 26
320.15 K, 9140 kPa, x1 = 0.09	806 ± 38
320.15 K, 10790 kPa, x1 = 0.09	830 ± 33
320.95 K, 9660 kPa, x1 = 0.224	877 ± 35
320.95 K, 13000 kPa, x1 = 0.224	889 ± 36
321.55 K, 9280 kPa, x1 = 0.177	839 ± 34
321.55 K, 10520 kPa, x1 = 0.177	847 ± 34
321.55 K, 12520 kPa, x1 = 0.177	857 ± 34

linear displacement
Details	mass density [kg/m3]
294.25 K, Liquid, x1 = 0.308	1048 ± 43
295.55 K, Liquid, x1 = 0.019	842 ± 34
295.65 K, Liquid, x1 = 0.074	922 ± 37
295.65 K, Liquid, x1 = 0.116	809 ± 32
295.65 K, Liquid, x1 = 0.146	887 ± 36
296.25 K, Liquid, x1 = 0.09	864 ± 35
298.25 K, Liquid, x1 = 0.015	857 ± 34
299.45 K, Liquid, x1 = 0.224	910 ± 36
300.75 K, Liquid, x1 = 0.177	889 ± 36
303.65 K, Liquid, x1 = 0.074	900 ± 36
303.75 K, Liquid, x1 = 0.015	802 ± 32
304.15 K, Liquid, x1 = 0.019	776 ± 31
304.25 K, Liquid, x1 = 0.116	795 ± 32
304.95 K, Liquid, x1 = 0.308	1028 ± 41
305.75 K, Liquid, x1 = 0.146	860 ± 35
305.85 K, Liquid, x1 = 0.09	854 ± 34
306.35 K, Liquid, x1 = 0.397	1042 ± 42
308.25 K, Liquid, x1 = 0.074	878 ± 35
308.65 K, Liquid, x1 = 0.495	992 ± 40
309.45 K, Liquid, x1 = 0.177	870 ± 35
312.05 K, Liquid, x1 = 0.015	656 ± 26
312.05 K, Liquid, x1 = 0.224	887 ± 36
312.75 K, Liquid, x1 = 0.308	1019 ± 41
313.55 K, Liquid, x1 = 0.116	771 ± 31
313.65 K, Liquid, x1 = 0.019	679 ± 27
314.85 K, Liquid, x1 = 0.146	830 ± 34
314.95 K, Liquid, x1 = 0.397	1037 ± 42
315.85 K, Liquid, x1 = 0.09	810 ± 32
318.95 K, Gas, x1 = 0.015	452 ± 18
320.15 K, Liquid, x1 = 0.09	799 ± 32
320.95 K, Liquid, x1 = 0.224	870 ± 35
